In one assay the target is SARS-CoV-2 S-RBD/ACE2 (Severe acute respiratory syndrome coronavirus 2, UniProt P0DTC2). As to the kind of experiment: NanoBiT RBD/ACE2 interaction assay in HEK293 cells. It counts as cell-based.
Assay [1] has as its target recombinant SARS-CoV-2 S-trimer protein; trimeric spike protein (Severe acute respiratory syndrome coronavirus 2, UniProt P0DTC2). As to the kind of experiment: SPR (Biacore T200), spike trimer immobilised on CM5 chip. It counts as binding.

`CN(/N=C/c1ccccc1C(=O)O)c1nc(-c2ccccc2Cl)cs1` [S416]: the IC50 (usually the concentration at which inhibition is half-maximal) at SARS-CoV-2 S-RBD/ACE2 was determined as 3.94 µM. Moreover, the dissociation constant (Kd) (usually a measure of binding affinity in units of concentration) in assay [1] came to 6.88 µM.
